From PubChem BioAssay (NCI)
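Where inhibition never reached the appropriate level, the endpoint shown equals the highest concentration tested. Otherwise, values were interpolated linearly from a five-concentration, 48-hour dose response in 96-well plates. GI50: concentration for 50% inhibition of growth. Definition used: TGI = concentration required for complete inhibition of growth.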

Legend:
Experiment in all cases: DTP human tumour cell line panel, 48 h
[1] = test system: 786-0 renal
[2] = test system: A498 renal
[3] = test system: A549 NSCLC
[4] = test system: ACHN renal
[5] = test system: BT-549 breast
[6] = test system: CAKI-1 renal
[7] = test system: CCRF-CEM leukemia
[8] = test system: COLO 205 colon
[9] = test system: DU-145 prostate
[10] = test system: HCC-2998 colon
[11] = test system: HCT-116 colon
[12] = test system: HCT-15 colon
[13] = test system: HL-60(TB) leukemia
[14] = test system: HOP-62 NSCLC
[15] = test system: HOP-92 NSCLC
[16] = test system: HS 578T breast
[17] = test system: HT29 colon
[18] = test system: IGROV1 ovarian
[19] = test system: K-562 leukemia
[20] = test system: KM12 colon
[21] = test system: LOX IMVI melanoma
[22] = test system: M14 melanoma
[23] = test system: MALME-3M melanoma
[24] = test system: MCF7 breast
[25] = test system: MDA-MB-231 breast
[26] = test system: MDA-MB-435
[27] = test system: MOLT-4 leukemia
[28] = test system: NCI-H226 lung
[29] = test system: NCI-H23 lung
[30] = test system: NCI-H460 lung
[31] = test system: NCI-H522 lung
[32] = test system: NCI/ADR-RES ovarian
[33] = test system: OVCAR-3 ovarian
[34] = test system: OVCAR-4 ovarian
[35] = test system: OVCAR-5 ovarian
[36] = test system: OVCAR-8 ovarian
[37] = test system: PC-3 prostate
[38] = test system: RPMI-8226 leukemia
[39] = test system: RXF 393 renal
[40] = test system: SF-268 CNS
[41] = test system: SF-295 CNS
[42] = test system: SF-539 CNS
[43] = test system: SK-MEL-2 melanoma
[44] = test system: SK-MEL-28 melanoma
[45] = test system: SK-MEL-5 melanoma
[46] = test system: SK-OV-3 ovarian
[47] = test system: SN12C renal
[48] = test system: SNB-19 CNS
[49] = test system: SNB-75 CNS
[50] = test system: SR leukemia
[51] = test system: SW-620 colon
[52] = test system: T-47D breast
[53] = test system: TK-10 renal
[54] = test system: U251 CNS
[55] = test system: UACC-257 melanoma
[56] = test system: UACC-62 melanoma
[57] = test system: UO-31 renal

Compound: Cc1ccccc1S(=O)(=O)N1[C@H](c2ccc(Cl)cc2)C(C(=O)N[C@@H](Cc2ccccc2)C(N)=O)=C[C@@H]1C(C)(C)C
- GI50 [1]: 9.46 µM
- TGI [1]: 23.9 µM
- GI50 [2]: 7.3 µM
- TGI [2]: 14.4 µM
- GI50 [3]: 3.43 µM
- TGI [3]: 13.1 µM
- GI50 [4]: 2.95 µM
- TGI [4]: 9.83 µM
- GI50 [5]: 8.63 µM
- TGI [5]: 20.9 µM
- GI50 [6]: 5.68 µM
- TGI [6]: 16.6 µM
- GI50 [7]: 5.77 µM
- TGI [7]: 26.7 µM
- GI50 [8]: 6.8 µM
- TGI [8]: 14.3 µM
- GI50 [9]: 8.26 µM
- TGI [9]: 20.4 µM
- GI50 [10]: 6.48 µM
- TGI [10]: 13.5 µM
- GI50 [11]: 2.9 µM
- TGI [11]: 15.1 µM
- GI50 [12]: 2.38 µM
- TGI [12]: 9.5 µM
- GI50 [13]: 9.6 µM
- TGI [13]: 31.2 µM
- GI50 [14]: 7.75 µM
- TGI [14]: 15.1 µM
- GI50 [15]: 7.24 µM
- TGI [15]: 17.4 µM
- GI50 [16]: 8.64 µM
- TGI [16]: 26.4 µM
- GI50 [17]: 3.49 µM
- TGI [17]: 10 µM
- GI50 [18]: 9.57 µM
- TGI [18]: 23.1 µM
- GI50 [19]: 7.1 µM
- TGI [19]: 35.4 µM
- GI50 [20]: 4.49 µM
- TGI [20]: 13.3 µM
- GI50 [21]: 6.98 µM
- TGI [21]: 14 µM
- GI50 [22]: 6.44 µM
- TGI [22]: 17 µM
- GI50 [23]: 10.2 µM
- TGI [23]: 20.1 µM
- GI50 [24]: 2.17 µM
- TGI [24]: 9.67 µM
- GI50 [25]: 6.94 µM
- TGI [25]: 14.3 µM
- GI50 [26]: 6.83 µM
- TGI [26]: 13.7 µM
- GI50 [27]: 4.87 µM
- TGI [27]: 31.3 µM
- GI50 [28]: 7.05 µM
- TGI [28]: 16.1 µM
- GI50 [29]: 8.05 µM
- TGI [29]: 17.6 µM
- GI50 [30]: 4.7 µM
- TGI [30]: 14.2 µM
- GI50 [31]: 7.92 µM
- TGI [31]: 15.6 µM
- GI50 [32]: 6.69 µM
- TGI [32]: 21 µM
- GI50 [33]: 6.12 µM
- TGI [33]: 14 µM
- GI50 [34]: 6.25 µM
- TGI [34]: 13.4 µM
- GI50 [35]: 5.62 µM
- TGI [35]: 11.9 µM
- GI50 [36]: 5.95 µM
- TGI [36]: 25.4 µM
- GI50 [37]: 2.39 µM
- TGI [37]: 12.2 µM
- GI50 [38]: 3.07 µM
- TGI [38]: 26.7 µM
- GI50 [39]: 5.01 µM
- TGI [39]: 11.9 µM
- GI50 [40]: 6.56 µM
- TGI [40]: 16.4 µM
- GI50 [41]: 2.8 µM
- TGI [41]: 10 µM
- GI50 [42]: 6.61 µM
- TGI [42]: 13.4 µM
- GI50 [43]: 9.59 µM
- TGI [43]: 17.6 µM
- GI50 [44]: 5.34 µM
- TGI [44]: 12 µM
- GI50 [45]: 6.8 µM
- TGI [45]: 13.5 µM
- GI50 [46]: 8.5 µM
- TGI [46]: 21.7 µM
- GI50 [47]: 6.08 µM
- TGI [47]: 13.3 µM
- GI50 [48]: 6.07 µM
- TGI [48]: 17.3 µM
- GI50 [49]: 4.85 µM
- TGI [49]: 12 µM
- GI50 [50]: 3.91 µM
- TGI [50]: 15.4 µM
- GI50 [51]: 7.76 µM
- TGI [51]: 19.8 µM
- GI50 [52]: 5 µM
- TGI [52]: 20.2 µM
- GI50 [53]: 9.43 µM
- TGI [53]: 19.1 µM
- GI50 [54]: 5.28 µM
- TGI [54]: 12.1 µM
- GI50 [55]: 8.31 µM
- TGI [55]: 17.2 µM
- GI50 [56]: 5.76 µM
- TGI [56]: 12.8 µM
- GI50 [57]: 4.23 µM
- TGI [57]: 10.7 µM
